Results on 14 compounds are retold here after PubChem BioAssay AID284 (DTP/NCI, 2004).

Values joined by “and” are separate entries in the source; they are usually repeats but may differ in a detail not shown here. Equal values may be shown once. Inconclusive results and toxic doses are left out.

The assay relates to BDF1 mice, L1210/MTX-resistant leukemia ip, survival T/C. The experiment in a line: NCI In Vivo Anticancer Drug Screen. Data for tumor model L1210 Leukemia resistant to Methotrexate; NSC 740 (intraperitoneal) in B6D2F1 (BDF1) mice. Conditions: endpoint: mean survival time, higher = longer survival. On the procedure:
The antitumor activity of compounds was measured in mice bearing transplantable tumors. Survival or tumor size were measured and the results are expressed as the measurement made in the treated group (T) divided by the measurement made in the vehicle treated control group (C). The tumor model used in this assay is L1210 Leukemia resistant to Methotrexate; NSC 740 (intraperitoneal) in B6D2F1 (BDF1) mice

Setting [1] is: dose: 5.0 mg/kg/injection, schedule: Q01DX Z (ip), vehicle: saline.
[2] abbreviates: dose: 10.0 mg/kg/injection, schedule: Q01DX Z (ip), vehicle: saline.
Setting [3] is: dose: 250.0 mg/kg/injection, schedule: Q01DX Z (ip), vehicle: saline.
Where [4] appears, read: dose: 500.0 mg/kg/injection, schedule: Q01DX Z (ip), vehicle: saline.
Where [5] appears, read: dose: 25.0 mg/kg/injection, schedule: Q01DX Z (ip), vehicle: saline.
Setting [6] is: dose: 50.0 mg/kg/injection, schedule: Q01DX Z (ip), vehicle: saline.
[7] abbreviates: dose: 5.0 mg/kg/injection, schedule: Q01DX Z (ip), vehicle: carboxymethylcellulose (CMC).
[8] abbreviates: dose: 7.5 mg/kg/injection, schedule: Q01DX Z (ip), vehicle: carboxymethylcellulose (CMC).
The mark [9] stands for this setting: dose: 10.0 mg/kg/injection, schedule: Q01DX Z (ip), vehicle: carboxymethylcellulose (CMC).

`COS(C)(=O)=O`: the T/C runs as follows: under setting [1], 105 % of control; under setting [2], 103 % of control; (dose: 20.0 mg/kg/injection, schedule: Q01DX Z (ip), vehicle: saline) 103 % of control; (dose: 40.0 mg/kg/injection, schedule: Q01DX Z (ip), vehicle: saline) 97 % of control.
As to `O=C1N(Cl)C(=O)C(c2ccc(Cl)cc2)(c2ccc(Cl)cc2)N1Cl`, the T/C is, setting by setting: (dose: 0.8 mg/kg/injection, schedule: Q01DX Z (ip), vehicle: methylcellulose (MC)) 90 % of control; (dose: 1.6 mg/kg/injection, schedule: Q01DX Z (ip), vehicle: methylcellulose (MC)) 90 % of control; (dose: 3.2 mg/kg/injection, schedule: Q01DX Z (ip), vehicle: methylcellulose (MC)) 86 % of control and 98 % of control.
`O=CCC(O)C(O)C(O)CO` (configuration not stated): the T/C is 113 % of control (dose: 3.75 mg/kg/injection, schedule: Q01DX Z (ip), vehicle: saline); 118 % of control under setting [1]; 114 % of control and 103 % of control (dose: 7.5 mg/kg/injection, schedule: Q01DX Z (ip), vehicle: saline); 118 % of control under setting [2]; 114 % of control (dose: 15.0 mg/kg/injection, schedule: Q01DX Z (ip), vehicle: saline); 108 % of control under setting [3]. Besides, the T/C under setting [4] was 104 % of control; the T/C (dose: 750.0 mg/kg/injection, schedule: Q01DX Z (ip), vehicle: saline) is 99 % of control; the T/C (dose: 1000.0 mg/kg/injection, schedule: Q01DX Z (ip), vehicle: saline) is 91 % of control.
On to `O=c1[nH]cc(F)c(=O)[nH]1`, for which the T/C was 92 % of control and 101 % of control under setting [5]; 87 % of control and 93 % of control and 98 % of control under setting [6].
As for `CC(=O)Nc1ccc2nc3ccc(NC(C)=O)cc3[n+](-c3ccccc3)c2c1`, the T/C runs as follows: (dose: 2.0 mg/kg/injection, schedule: Q01DX Z (ip), vehicle: carboxymethylcellulose (CMC)) 107 % of control; (dose: 3.0 mg/kg/injection, schedule: Q01DX Z (ip), vehicle: carboxymethylcellulose (CMC)) 88 % of control; (dose: 6.0 mg/kg/injection, schedule: Q01DX Z (ip), vehicle: carboxymethylcellulose (CMC)) 100 % of control.
For the compound `CCCNc1ncnc2[nH]ncc12`, the T/C by setting is: (dose: 3.13 mg/kg/injection, schedule: Q01DX010 (ip), vehicle: saline) 90 % of control and 91 % of control; (dose: 6.25 mg/kg/injection, schedule: Q01DX010 (ip), vehicle: saline) 100 % of control and 102 % of control; (dose: 12.5 mg/kg/injection, schedule: Q01DX010 (ip), vehicle: saline) 86 % of control and 97 % of control.
`N#[N+]c1cnc([O-])[nH]c1=O`: the T/C runs as follows: (dose: 0.16 mg/kg/injection, schedule: Q01DX Z (ip), vehicle: methylcellulose (MC)) 106 % of control; (dose: 0.32 mg/kg/injection, schedule: Q01DX Z (ip), vehicle: methylcellulose (MC)) 103 % of control; (dose: 0.63 mg/kg/injection, schedule: Q01DX Z (ip), vehicle: methylcellulose (MC)) 100 % of control.
`CC(CCC(C)OS(C)(=O)=O)OS(C)(=O)=O` (configuration not stated): the T/C is 86 % of control (dose: 3.75 mg/kg/injection, schedule: Q01DX Z (ip), vehicle: carboxymethylcellulose (CMC)); 114 % of control under setting [7]; 106 % of control under setting [8]; 91 % of control under setting [9]; 98 % of control (dose: 12.5 mg/kg/injection, schedule: Q01DX Z (ip), vehicle: carboxymethylcellulose (CMC)); 88 % of control (dose: 50.0 mg/kg/injection, schedule: Q01DX Z (ip), vehicle: carboxymethylcellulose (CMC)). For the same compound, the T/C (dose: 75.0 mg/kg/injection, schedule: Q01DX Z (ip), vehicle: carboxymethylcellulose (CMC)) was 98 % of control.
As for `CN(Cc1cnc2nc(N)nc(N)c2n1)c1ccc(C(=O)N[C@@H](CCC(=O)O)C(=O)O)cc1`, the T/C is, setting by setting: (dose: 0.19 mg/kg/injection, schedule: Q01DX010 (ip), vehicle: other) 95 % of control; (dose: 0.38 mg/kg/injection, schedule: Q01DX010 (ip), vehicle: other) 100 % of control; (dose: 0.75 mg/kg/injection, schedule: Q01DX010 (ip), vehicle: other) 99 % of control; (dose: 0.75 mg/kg/injection, schedule: Q01DX Z (ip), vehicle: alkali diluted with saline) 120 % of control and 92 % of control; (dose: 0.75 mg/kg/injection, schedule: Q01DX Z (ip), vehicle: saline) 95 % of control and 106 % of control; (dose: 1.5 mg/kg/injection, schedule: Q01DX010 (ip), vehicle: other) 100 % of control. In addition, the T/C by setting is: (dose: 1.5 mg/kg/injection, schedule: Q01DX Z (ip), vehicle: alkali diluted with saline) 117 % of control and 92 % of control; (dose: 1.5 mg/kg/injection, schedule: Q01DX Z (ip), vehicle: saline) 94 % of control and 100 % of control; (dose: 3.0 mg/kg/injection, schedule: Q01DX Z (ip), vehicle: alkali diluted with saline) 97 % of control; (dose: 3.0 mg/kg/injection, schedule: Q01DX Z (ip), vehicle: saline) 87 % of control and 99 % of control; (dose: 4.0 mg/kg/injection, schedule: Q01DX Z (ip), vehicle: other) 91 % of control and 95 % of control.
Turning to `CCc1nc(N)nc(N)c1-c1ccc(Cl)cc1`, the T/C (dose: 9.0 mg/kg/injection, schedule: Q01DX Z (ip), vehicle: carboxymethylcellulose (CMC)) was 92 % of control; the T/C (dose: 18.0 mg/kg/injection, schedule: Q01DX Z (ip), vehicle: carboxymethylcellulose (CMC)) was 96 % of control; the T/C (dose: 36.0 mg/kg/injection, schedule: Q01DX Z (ip), vehicle: carboxymethylcellulose (CMC)) is 95 % of control.
As for `CNC=O`, the T/C reads like this: (dose: 125.0 mg/kg/injection, schedule: Q01DX Z (ip), vehicle: saline) 117 % of control; (dose: 150.0 mg/kg/injection, schedule: Q01DX Z (ip), vehicle: saline) 104 % of control; under setting [3], 111 % of control; (dose: 300.0 mg/kg/injection, schedule: Q01DX Z (ip), vehicle: saline) 156 % of control; under setting [4], 112 % of control.
Regarding `O=C(Nc1ccc(C2=NCCCN2)cc1)c1ccc(C(=O)Nc2ccc(C3=NCCCN3)cc2)cc1`, the T/C is 222 % of control and 252 % of control (dose: 2.0 mg/kg/injection, schedule: Q01DX010 (ip), vehicle: other); 124 % of control and 242 % of control (dose: 4.0 mg/kg/injection, schedule: Q01DX010 (ip), vehicle: other); 208 % of control under setting [7]; 122 % of control under setting [8]; 114 % of control and 93 % of control (dose: 8.0 mg/kg/injection, schedule: Q01DX010 (ip), vehicle: other); 114 % of control under setting [9]. Further, the T/C is, setting by setting: (dose: 15.0 mg/kg/injection, schedule: Q01DX Z (ip), vehicle: carboxymethylcellulose (CMC)) 100 % of control; (dose: 16.0 mg/kg/injection, schedule: Q01DX010 (ip), vehicle: other) 93 % of control; (dose: 20.0 mg/kg/injection, schedule: Q01DX Z (ip), vehicle: carboxymethylcellulose (CMC)) 98 % of control; (dose: 25.0 mg/kg/injection, schedule: Q01DX Z (ip), vehicle: carboxymethylcellulose (CMC)) 96 % of control.
Take `Nc1nc2n[nH]nc2c(=O)[nH]1`: the T/C (dose: 25.0 mg/kg/injection, schedule: Q01DX010 (ip), vehicle: alkali diluted with saline) is 92 % of control; the T/C (dose: 25.0 mg/kg/injection, schedule: Q01DX Z (ip), vehicle: water) was 120 % of control; the T/C (dose: 50.0 mg/kg/injection, schedule: Q01DX010 (ip), vehicle: alkali diluted with saline) was 94 % of control and 99 % of control; the T/C (dose: 50.0 mg/kg/injection, schedule: Q01DX Z (ip), vehicle: other) was 106 % of control; the T/C (dose: 50.0 mg/kg/injection, schedule: Q01DX Z (ip), vehicle: water) was 120 % of control; the T/C (dose: 100.0 mg/kg/injection, schedule: Q01DX010 (ip), vehicle: alkali diluted with saline) is 90 % of control and 91 % of control. The T/C was 101 % of control (dose: 100.0 mg/kg/injection, schedule: Q01DX Z (ip), vehicle: other); 88 % of control and 98 % of control (dose: 200.0 mg/kg/injection, schedule: Q01DX010 (ip), vehicle: alkali diluted with saline); 107 % of control (dose: 200.0 mg/kg/injection, schedule: Q01DX Z (ip), vehicle: water); 94 % of control (dose: 350.0 mg/kg/injection, schedule: Q01DX Z (ip), vehicle: water).
Consider `CN(N=O)C(N)=O`, for which the T/C is, setting by setting: (dose: 5.0 mg/kg/injection, schedule: Q01DX010 (ip), vehicle: saline) 122 % of control; (dose: 12.5 mg/kg/injection, schedule: Q01DX Z (ip), vehicle: saline) 105 % of control; under setting [5], 101 % of control; under setting [6], 103 % of control.
